Data published in patent US20200102349A1, “PEPTIDE REAGENTS AND METHODS FOR DETECTION AND TARGETING OF DYSPLASIA, EARLY CANCER AND CANCER” (THE REGENTS OF THE UNIVERSITY OF MICHIGAN, priority 2014, published 2020).

Columns and labels:
SW620 cells = assay: Peptide binding to colorectal cancer cells on confocal microscopy (SW620); format: cell-based, human; conditions: SW620, 5 μM, 3 min
Protocol: (§1) HT29, SW480, and SW620 cells (˜10^3) were grown on cover slips to ˜80% confluence. The cells were washed 1× with PBS and incubated with 5 μM of QRH*-Cy5.5 and PEH*-Cy5.5 for 3 min at RT. The cells were then washed 3× in PBS, fixed with 4% paraformaldehyde (PFA) for 5 min, washed 1× with PBS, and then mounted on glass slides with ProLong Gold reagent containing DAPI (Invitrogen). Confocal fluorescence images were collected with FITC, Cy5.5, and DAPI filters (Leica Inverted SPSX Confocal Microscope System) using a 63× oil-immersion objective. Fluorescence intensities from 5 cells in 2 independent images were quantified using custom Matlab (Mathworks) software.
We assessed binding of QRH*-Cy5.5 to a panel of colorectal cancer cells that vary in EGFR expression level on confocal microscopy. We observed binding of QRH*-Cy5.5 to the surface (arrows) of HT29, SW480, and SW620 cells with decreasing strength, FIG. 3A-C, scale bars 30 μm. […] Results are an average of 10 cells from 2 independent images. EGFR expression is shown on Western blot, FIG. 3H.

HT29 cells = assay: Apparent dissociation constant on flow cytometry; format: binding, human; conditions: 4° C., 1 hour
Protocol: We measured the apparent dissociation constant of the peptide to HT29 cells as an assessment of binding affinity. QRH*-Cy5.5 was serially diluted in PBS at concentrations of 0, 10, 25, 50, 75, 100, 125, 150 and 200 nM. HT29 cells (˜10^5) were incubated with QRH*-Cy5.5 at 4° C. for 1 hour, washed with cold PBS, and the mean fluorescence intensities were measured on flow cytometry. The equilibrium dissociation constant kd=1/ka was calculated by performing a least squares fit of the data to the non-linear equation […]. I0 and Imax are the initial and maximum fluorescence intensities, corresponding to no peptide and at saturation, respectively, and [X] represents the concentration of the bound peptide [Thomas et al., Clin Exp Metastasis, 26:105-119 (2009)]. Origin 6.1 data analysis software (OriginLab Corp) was used to calculate kd.

human colonic dysplasia = assay: Binding of EGFR peptide and antibody to human colonic dysplasia specimens, confocal microscopy; conditions: for log transformed fluorescence intensity, mean (±std): 5 μM, 10 min
Protocol: For the in vivo fluorescence images of mouse colon, the T/B ratios for flat dysplasia and polyps were log-transformed to improve normality. The fold-change between classification pairs was estimated using the anti-log of the difference in the log-transformed data. Differences in results between the experimental and control peptides were evaluated on t-test. *P<0.05 was considered significant. Similar methods were used to evaluate the ex vivo fluorescence images of human colonic specimens. The results were plotted on a receiver-operator characteristic (ROC) curve. Co-localization of peptide and antibody binding was evaluated on Pearson's correlation coefficient. All analyses were performed using custom Matlab software (MathWorks Inc).
Specimens of human colonic mucosa were obtained from biopsy during routine colonoscopy, frozen in OCT, cut in 10 μm sections, and incubated with QRH*-Cy5.5 (5 μM) in 1×PBS for 10 min at RT. The sections were washed 3× with PBS and incubated overnight at 4° C. with 1:1000 dilution of primary monoclonal rabbit anti-EGFR antibody (Cell Signaling Technology, #4267, isotype IgG). The sections were washed with PBS 3× and incubated with 1:500 dilution of Alexa Fluor 488-labeled secondary goat anti-rabbit antibody (Invitrogen) for 1 hour at RT. The sections were washed with PBS 3×, and fixed with 4% PFA for 10 min. The sections were then washed with PBS 1×, and mounted with ProLong Gold reagent containing DAPI (Invitrogen). Confocal fluorescence images were collected with DAPI, FITC and Cy5.5 filters with 20× objective (Leica TCS SP5 Microsystems). The mean fluorescence intensities from 3 boxes (dimensions of 30×30 μm2) located completely within the surface epithelium of each specimen were measured. […] Adjacent sections were processed for routine histology (H&E) that was reviewed by two gastrointestinal pathologists (SRO and HDA).

EGFR = EGFR (Homo sapiens, UniProt P00533); assay: siRNA knockdown of EGFR in HT29 cells, confocal fluorescence microscopy; format: cell-based; parameters: endogenous in cells; host or cells: HT29 human colorectal adenocarcinoma cells (ATCC)
Protocol: as §1
We used siRNA to knockdown expression of EGFR in HT29 cells. We used ON-TARGETplus human EGFR siRNA and ON-TARGETplus non-targeting pool (Thermo Scientific) per manufacturer's protocol. 5 μL of siRNA at 5 μM/L concentration was transfected into HT29 cells using DharmaFECT (Thermo Scientific). QRH*-Cy5.5 and PEH*-Cy5.5 were incubated with HT29 siEGFR and siCL cells. The cells were fixed with either 4% PFA or methanol. A 1:1000 dilution of primary monoclonal mouse anti-EGFR antibody (Thermo Scientific, # MS-396, clone 199.12, IgG2a isotype) was incubated overnight at 4° C. Afterwards, the cells were washed 3× with PBS, and further incubated with 1:500 dilution of AF488-labeled secondary goat anti-mouse IgG antibody (Life Technologies, # A-11029) for 1 hour at RT, washed 3×, and then mounted on glass slides with ProLong Gold reagent containing DAPI (Invitrogen). Confocal fluorescence images were collected with FITC, Cy5.5, and DAPI filters using a 63× oil-immersion objective.
We validated specific binding of QRH*-Cy5.5 to EGFR on siRNA knockdown in HT29 cells. On confocal microscopy, QRH*-Cy5.5 (red), FIG. 2A, and AF488-labeled anti-EGFR (green), FIG. 2B, bind strongly to the surface (arrows) of control HT29 cells (transfected with siCL, non-targeting siRNA), scale bars 30 μm. […] The results (mean±std) for QRH*-Cy5.5, anti-EGFR AF488, and PEH*-Cy5.5 to control cells (siCL) were 7.8±1.7, 3.1±1.0, and 1.6±0.3 AU, respectively, and to EGFR knockdown cells (siEGFR) were 2.5±0.8, 1.0±0.4, and 1.9±0.7 AU, respectively, *P<0.01 by paired t-test, FIG. 2G. Results are an average of 10 cells from 2 images performed independently. EGFR expression is shown on Western blot, FIG. 12H.

## QRHKPRE (SEQ ID NO: 1) with Cy5.5 fluorophore attached via a GGGSK linker (SEQ ID NO: 18) on the C-terminus [QRH*-Cy5.5]
SW620 cells
  fluorescence intensity of binding (mean±std): 1.0±0.3
HT29 cells
  Kd: 50 nM
Human colonic dysplasia
  average fold-change for dysplasia compared to normal: 19.4
Human colonic dysplasia; dysplasia (n=29)
  log transformed fluorescence intensity, mean (±std): 1.04±0.54
Human colonic dysplasia; normal (n=15)
  log transformed fluorescence intensity, mean (±std): −0.248±0.49
EGFR; EGFR knockdown HT29 cells (siEGFR)
  fluorescence intensity (mean±std): 2.5±0.8 AU
EGFR; control HT29 cells (siCL, non-targeting siRNA)
  fluorescence intensity (mean±std): 7.8±1.7 AU
